Laboratory results reported in patent US20220396593A1, “SYNTHESIS AND CHARACTERIZATION OF VANADIUM COMPLEXES” (priority 2021, published 2022).

Assays:
[1] = system: oncolytic RNA viruses including vesicular stomatitis virus (VSV) and Measles; conditions: cited from earlier work
[2] = Stability of vanadium complexes in water and PBS buffer (NMR, pH over time); conditions: pH adjusted to 7.4 where needed
[3] = Solubility of vanadium complex solid in water / PBS buffer

Molecule | Effect on replication and spread of oncolytic RNA viruses [1] | Stability in solution and need for pH adjustment [2] | further results
O=S(=O)([O-])[O-].[O]=[V+2] [vanadyl sulfate] | improve the replication and spread of oncolytic RNA viruses | – | –
Cc1occc(=O)c1[O-].Cc1occc(=O)c1[O-].[O]=[V+2] [bismaltolatoxovanadate (BMOV), bismaltolatoxovanadate] | improve the replication and spread of oncolytic RNA viruses | – | –
Na3[(V^IVO)2(C6H4O7)(C6H5O7)] [CDOS155] | – | limited at pH 7.4 but similar in water or PBS but required continuous pH adjustment | Solubility ([3]; in water): soluble in water; pH up to which the solid dissolved ([3]; solid mixed with PBS buffer): ≤ 5
[O]=[V]([O-])([O-])[O-] [orthovanadate] | improve the replication and spread of oncolytic RNA viruses | – | –
K3[(VO2)2(C6H6O7)(C6H5O7)]×3 H2O [CDOS150] | – | the solutions did require initial pH adjustment | pH up to which the solid dissolved ([3]; solid dissolved into water and phosphate buffered saline (PBS) buffer): ≤ 5
